Data: patent publication US5726195A, “Aminoacyl adenylate mimics as novel antimicrobial and antiparasitic agents” (Cubist Pharmaceuticals, Inc., priority 1996, dated 1998)
Converted amounts (≈) assume the structure as drawn.

How the values were obtained:
[1] = tested on: Streptococcus pyogenes (ATCC 8668); test: Mouse protection test against wild type Streptococcus pyogenes; type: in vivo, Streptococcus pyogenes; female CD-1 mice; details: 10 mg/kg sc (positive control), repeated at 4 hours, 7 days
Description: The mouse protection test is an industry standard for measuring the efficacy of a test compound in vivo [for examples of this model see J. J. Clement, et al., Antimicrobial Agents and Chemotherapy, 38 (5), 1071-1078, (1994)]. As exemplified below, this test was used to show the in vivo efficacy of the compounds of the present invention against bacteria.
The in vivo antibacterial activity of compound X was established by infecting female CD-1 mice (Charles River Lab, Massachusettes) weighing 20-24 g intraperitoneally with Streptococcus pyogenes inoculum. The inoculum was prepared from Streptococcus pyogenes (ATCC 8668) which was cultured in brain heart infusion broth (Baltimore Biological Laboratories,Maryland) at 37° C. for 18 hr, and then 0.1 ml of the overnight culture was diluted with the medium to 5.0 ml for reading its OD at 600 nm (0.017). The turbidity of a 0.5 McFarland standard is equivalent to OD600 0.1, or 10^8 cfu/ml. Then, 8×10^5 cfu of the bacteria (940 μl of 1:1000 overnight culture) was added to 20 ml of phosphate buffered saline (Sigma P-0261 ) containing 5% hog gastric mucin (Sigma M-2378). All animals were injected with 0.5 ml of the inoculum, equivalent to 2×10^4 cfu/mouse which is the dose causing ~100% death of the animals without treatment.
Compound X (50 mg) was dissolved in 5.0 ml of 0.05M Tris.HCl (pH 8.8) to give a solution of 10 mg/ml. This solution was serially diluted with 0.05 M Tris.HCl by 5-fold (1.0 ml to 5.0 ml) to give 2, 0.4 and 0.08 mg/ml solutions. The known antibiotic erythromycin (Sigma E-6376, in phosphate buffered saline, 1 mg/ml, pH 7.0) was used as a positive control. All the solutions were filtered with 0.2 μm Nalgene syringe filter. Immediately after the bacterial inoculation, group 1 animals were subcutaneously (sc) injected with 0.05M Tris.HCl (no antibiotic) and groups 2 to 5 were given compound X sc at 0.8, 4, 20, and 100 mg/kg, respectively. Group 6 animals received erythromycin sc at 10 mg/kg. These injections were repeated once at 4 hours after the inoculation for the respective groups. The injection volume at each time was 10 ml per kilogram of body weight. The 50% protective dose (PD50) is calculated on the basis of the number of mice surviving 7 days after inoculation.

E. faecalis ATCC 33011 = test: Whole cell antimicrobial screen, MIC; type: cell-based; details: Enterococcus faecalis, ATCC33011
Protocol: (§1) Compounds were tested for antimicrobial activity against a panel of organisms according to standard procedures described by the National Committee for Clinical Laboratory Standards (NCCLS document M7-A3, Vol. 13, No. 25, 1993/NCCLS document M27-P, Vol. 12, No. 25, 1992). Compounds were dissolved in 100% dimethyl sulfoxide and were diluted to the final reaction concentration (0.1 μg/mL-500 μg/mL) in microbial growth media. In al cases the final concentration of dimethyl sulfoxide incubated with cells is less than or equal to 1%. For minimum inhibitory concentration (MIC) calculations, 2-fold dilutions of compounds were added to wells of a microtiter plate containing 5×10^4 bacteria or fungal cells in a final volume of 100 lambda of an appropriate media (Mueller-Hinton Broth; Haemophilus Test Media; Mueller-Hinton Broth+5% Sheep Blood; or […]). Plates were incubated overnight at an appropriate temperature (30° C.-37° C.) and optical densities (measure of cell growth) were measured using a commercial plate reader. The MIC value is defined as the lowest compound concentration inhibiting growth of the test organism.

S. aureus ATCC 14154 = test: Whole cell antimicrobial screen, MIC; type: cell-based; details: Staphylococcus aureus, ATCC14154
Protocol: as §1

B. subtilis ATCC 6633 = test: Whole cell antimicrobial screen, MIC; type: cell-based; details: Bacillus subtilis, ATCC6633
Protocol: as §1

K. pneumonia ATCC 4352 = test: Whole cell antimicrobial screen, MIC; type: cell-based; details: Klebsiella pneumoniae, ATCC4352
Protocol: as §1

[2] = tested on: S. epidermidis ATCC 33501; test: Whole cell antimicrobial screen, MIC; type: cell-based; details: Staphylococcus epidermidis, ATCC33501
Protocol: as §1

E. faecium ATCC 6569 = test: Whole cell antimicrobial screen, MIC; type: cell-based; details: Enterococcus faecium, ATCC6569
Protocol: as §1

[3] = tested on: S. saprophyticus ATCC 35552; test: Whole cell antimicrobial screen, MIC; type: cell-based; details: Staphylococcus saprophyticus, ATCC35552
Protocol: as §1

[4] = tested on: M. catarrhalis ATCC 25240; test: Whole cell antimicrobial screen, MIC; type: cell-based; details: Moraxella catarrhalis, ATCC25240
Protocol: as §1

C. albicans ATCC 10231 = test: Whole cell antimicrobial screen, MIC; type: cell-based; details: Candida albicans, ATCC10231
Protocol: as §1

S. aureus ATCC 6538P = test: Whole cell antimicrobial screen, MIC; type: cell-based; details: Staphylococcus aureus, ATCC6538P
Protocol: as §1

[5] = molecular target: E. Coli. IleRS (isoleucyl-tRNA synthetase) (Escherichia coli, UniProt P00956); test: Inhibition of isoleucyl-tRNA synthetase (aminoacylation of tRNA with [3H]isoleucine); type: biochemical; details: E. coli enzyme; irreversible inhibitors: values are 50% of the active enzyme concentration; read-out: IC50 E.Coli. IleRS
Sequence of E. Coli. IleRS (isoleucyl-tRNA synthetase) (P00956 whole entry): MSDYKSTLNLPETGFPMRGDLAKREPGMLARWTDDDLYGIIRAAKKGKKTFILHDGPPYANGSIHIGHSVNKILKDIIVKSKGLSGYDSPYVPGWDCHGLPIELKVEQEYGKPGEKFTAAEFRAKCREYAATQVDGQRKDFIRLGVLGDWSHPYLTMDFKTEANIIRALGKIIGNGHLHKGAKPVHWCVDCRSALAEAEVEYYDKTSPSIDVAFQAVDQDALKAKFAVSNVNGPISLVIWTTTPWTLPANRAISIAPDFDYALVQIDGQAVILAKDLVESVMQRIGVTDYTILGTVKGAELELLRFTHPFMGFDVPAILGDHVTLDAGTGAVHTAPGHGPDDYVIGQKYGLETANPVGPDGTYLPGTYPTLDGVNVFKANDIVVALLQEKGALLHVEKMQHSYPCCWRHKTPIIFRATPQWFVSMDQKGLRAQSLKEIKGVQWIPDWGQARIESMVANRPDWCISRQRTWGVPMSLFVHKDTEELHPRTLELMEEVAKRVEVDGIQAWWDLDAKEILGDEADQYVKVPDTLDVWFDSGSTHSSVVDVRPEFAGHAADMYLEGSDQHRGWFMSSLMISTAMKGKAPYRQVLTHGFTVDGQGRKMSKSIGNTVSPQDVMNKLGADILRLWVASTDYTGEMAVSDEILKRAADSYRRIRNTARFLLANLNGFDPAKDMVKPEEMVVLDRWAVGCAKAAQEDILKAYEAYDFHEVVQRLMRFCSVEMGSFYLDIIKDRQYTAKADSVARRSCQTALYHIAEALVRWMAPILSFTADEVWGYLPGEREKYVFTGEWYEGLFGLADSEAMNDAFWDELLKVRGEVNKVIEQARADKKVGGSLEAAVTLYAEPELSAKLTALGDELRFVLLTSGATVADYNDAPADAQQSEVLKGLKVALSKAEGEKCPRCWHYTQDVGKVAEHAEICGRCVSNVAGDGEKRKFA
Protocol: The extent of aminoacylation of tRNA with isoleucine catalyzed by isoleucyl-tRNA synthetase enzyme was measured by monitoring the incorporation of [3H] isoleucine into trichloroacetic acid-precipitable tRNA in the presence of a compound of Formula I, as compared with activity in the absence of inhibitor. The isoleucyl-tRNA synthetase enzymes are well known in the prior art and can be obtained and purified by known methods (for example see: D. Kern et at., Biochimie, 61, 1257-1272 (1979) and J. Gilbart et al., Antimicrobial Agents and Chemotherapy, 37 (1), 32-38 (1993)).
Isoleucyl-tRNA synthetase enzyme (0.08-2.0 nM, preferably, 0.4 nM) was first pre-incubated at 25° C. with 0.05 mg/ml bovine serum albumin, 10 mM DTT, 2.5% dimethyl sulfoxide, with or without a compound of Formula I, for 20 minutes. At this point a substrate solution (a solution containing the following: ATP, [^3 H]isoleucine, tRNA, HEPES, magnesium chloride, and potassium chloride) was added to give a final concentration of 0.0286 mg/ml bovine serum albumin, 5.7 mM DTT, 4 mM ATP, 5-20 μM [^3 H] isoleucine (1-15 Ci/mmol), 90 μM crude tRNA or 2 μM isoleucine specific tRNA, 1.4% dimethyl sulfoxide, 30 mM HEPES (pH 7.5), 10 mM magnesium chloride, and 50 mM potassium chloride and incubated at 25° C. Aliquots were removed at selected times (e.g. 5, 10, 20 minutes) and applied to 3MM filter paper discs (Whatman) and then dropped into 5% (wt/vol) trichloroacetic acid for >5 minutes. Filters were washed for three 10-minute periods in 5% trichloroacetic acid, rinsed in 95% ethanol and diethyl ether, and radioactivity was measured with Betafluor™ (National Diagnostics) by liquid scintillation counting.
Inhibitor activity is reported in Table II as an IC50 value (inhibitor concentration causing 50% inhibition of enzyme activity) per a known amount of active enzyme. In the case of irreversible inhibitors (1:1 stoichiometry) these values are 50% of the active enzyme concentration. The IC50 (in nM, E. coli) values of representative compounds of the present invention are listed in the second column of Table II.

S. pyogenes ATCC 8668 = test: Whole cell antimicrobial screen, MIC; type: cell-based; details: Streptococcus pyogenes, ATCC8668
Protocol: as §1

Row | SMILES | Protective % [1] [%] | Number of Alive ([1]; of 5 mice) | MIC (E. faecalis ATCC 33011) [µg/mL] | MIC (S. aureus ATCC 14154) [µg/mL] | MIC (B. subtilis ATCC 6633) [µg/mL] | MIC (K. pneumonia ATCC 4352) [µg/mL] | MIC [2] [µg/mL] | MIC (E. faecium ATCC 6569) [µg/mL] | MIC [3] [µg/mL] | MIC [4] [µg/mL] | MIC (C. albicans ATCC 10231) [µg/mL] | MIC (S. aureus ATCC 6538P) [µg/mL] | IC50 [5] [nM] | MIC (S. pyogenes ATCC 8668) [µg/mL]
1 | CC[C@H]1OC(=O)[C@H](C)[C@@H](O[C@H]2C[C@@](C)(OC)[C@@H](O)[C@H](C)O2)[C@H](C)[C@@H](O[C@@H]2O[C@H](C)C[C@H](N(C)C)[C@H]2O)[C@](C)(O)C[C@@H](C)C(=O)[C@H](C)[C@@H](O)[C@]1(C)O [Erythromycin, erythromycin, reference compound] | 100 | 5 |  |  |  |  |  |  |  |  |  |  |  | 
2 | CC[C@H](C)[C@H](N)C(=O)NS(=O)(=O)OC[C@H]1O[C@@H](CCn2nnc(-c3ccc(C#Cc4ccccc4)cc3)n2)[C@H](O)[C@@H]1O [IV] |  |  | > 500 | 100 (≈ 167 µM) | 25 (≈ 41.8 µM) | 50 (≈ 83.5 µM) | 2 (≈ 3.34 µM) | > 500 | 10 (≈ 16.7 µM) | 5 (≈ 8.35 µM) | > 200 | 10 (≈ 16.7 µM) | 4.5 | 
3 | CC[C@H](C)[C@H](N)C(=O)NS(=O)(=O)OC[C@H]1O[C@@H](CCn2nnc(-c3ccc(Sc4ccccc4)cc3)n2)[C@H](O)[C@@H]1O [IX] |  |  | 500 (≈ 824 µM) | 50 (≈ 82.4 µM) |  |  | 5 (≈ 8.24 µM) | 10 (≈ 16.5 µM) | 25 (≈ 41.2 µM) |  | > 500 | 25 (≈ 41.2 µM) | 5 | 0.5 (≈ 0.824 µM)
4 | CC[C@H](C)[C@H](N)C(=O)NS(=O)(=O)OC[C@H]1O[C@@H](CCn2nnc(-c3ccc(C(=O)OCc4ccccc4)cc3)n2)[C@H](O)[C@@H]1O [VI] |  |  | > 500 | 50 (≈ 79 µM) |  |  | 5 (≈ 7.9 µM) | 100 (≈ 158 µM) | 25 (≈ 39.5 µM) |  | > 500 | 25 (≈ 39.5 µM) | 7.5 | > 5
